{"source": "patent US6787161B2", "about": "“Anti-cancer compounds” (Peplin Biotech Pty. Ltd., priority 1997, dated 2004)", "key": {"MM96L cells": {"system": "MM96L cells", "experiment": "Effect of betaines on MM96L cell numbers", "assay_type": "cell-based, human", "design": "key to cell numbers rating and morphology: +++ = no effect; − = complete cell death; *d = indicates change to dendritic morphology of the cells", "details": "4 days", "description": "Betaines of different types were solubilised in sterile MilliQ™ water to a final concentration of 1 mg/ml, and diluted into 0.1 ml tissue culture medium containing 5000 MM96L cells as described previously. Cells were scored after 4 days incubation."}, "MM96L melanoma cell line": {"system": "MM96L melanoma cell line", "experiment": "MM96L assay of chromatographic fractions (cell inhibition, reversion to dendritic appearance)", "assay_type": "cell-based, human", "details": "at 1 in 5×10^6 dilution", "description": "Fractions were dried by vacuum centrifugation, reconstituted in 500 μl PBS, and assayed against MM96L cells and in the metallothionein reporter assay as described above. Fractions 13 to 28 all induced complete reversion of MM96L cells to a dendritic appearance, but cell death was not observed. The effect was much more striking in the reporter assay, in which activity was still observed at a dilution of 1/10,000 (i.e. at a final concentration in the culture of 1/100,000).\nFractions 14 and 15 from the HPLC subfractionation described in Example 7 and FIG. 3 were further purified by repeated chromatography, selecting the dominant symmetrical peak with constant diode array spectra (e.g. fractions 14 and 15; results for fraction 14 are shown in FIGS. 4 and 5). Activity of the purified fractions in causing reversion of MM96L to the dendritic appearance was confirmed by cell assay.\n(a) The ether-soluble fraction, prepared as in Example 7, was reconstituted in ethylene glycol dimethyl ether (DME) and chromatographed on 20×20 cm silica gel plates, using chloroform:ethyl acetate (82:18) as the developing solvent (FIG. 7). The plate was viewed on a UV light box and the UV positive bands were identified, excised from the gel, eluted with DME, and tested for inhibitory activity and morphology reversal against MM96L melanoma cell line. […]"}}, "data": [{"compound": "C[N+](C)(C)CC(=O)[O-]", "note": "[glycine betaine]", "values": [{"measurement": "cell numbers rating and morphology", "setting": "MM96L cells; dilution 1/50 of 1 mg/ml", "value": "+++"}, {"measurement": "cell numbers rating and morphology", "setting": "MM96L cells; dilution 1/500 of 1 mg/ml", "value": "+++"}, {"measurement": "cell numbers rating and morphology", "setting": "MM96L cells; dilution 1/5,000 of 1 mg/ml", "value": "+++"}]}, {"compound": "C[N+](C)(C)CCC(=O)O.[Cl-]", "note": "[β-alanine betaine hydrochloride]", "values": [{"measurement": "final concentration at which cell numbers were depressed or inhibited", "setting": "MM96L cells", "value": 20, "unit": "µg/mL"}, {"measurement": "cell numbers rating and morphology", "setting": "MM96L cells; dilution 1/50 of 1 mg/ml", "value": "++d"}, {"measurement": "cell numbers rating and morphology", "setting": "MM96L cells; dilution 1/500 of 1 mg/ml", "value": "+++"}, {"measurement": "cell numbers rating and morphology", "setting": "MM96L cells; dilution 1/5,000 of 1 mg/ml", "value": "+++"}]}, {"compound": "C[N+]1(C)C[C@H](O)C[C@H]1C(=O)[O-]", "note": "[t-4 hydroxy N,N-dimethyl proline]", "values": [{"measurement": "final concentration at which cell numbers were depressed or inhibited", "setting": "MM96L cells", "value": 20, "unit": "µg/mL"}, {"measurement": "cell numbers rating and morphology", "setting": "MM96L cells; dilution 1/50 of 1 mg/ml", "value": "+pd"}, {"measurement": "cell numbers rating and morphology", "setting": "MM96L cells; dilution 1/500 of 1 mg/ml", "value": "+++"}, {"measurement": "cell numbers rating and morphology", "setting": "MM96L cells; dilution 1/5,000 of 1 mg/ml", "value": "+++"}]}, {"compound": "CN1C[C@@H](O)C[C@@H]1C(=O)O", "note": "[t-4-hydroxy N-methyl proline, free base, t-4-hydroxy N-methyl proline]", "values": [{"measurement": "cell numbers rating and morphology", "setting": "MM96L cells; dilution 1/50 of 1 mg/ml", "value": "+++"}, {"measurement": "cell numbers rating and morphology", "setting": "MM96L cells; dilution 1/500 of 1 mg/ml", "value": "+++"}, {"measurement": "cell numbers rating and morphology", "setting": "MM96L cells; dilution 1/5,000 of 1 mg/ml", "value": "+++"}]}, {"compound": "C[N+]1(C)CCC[C@H]1C(=O)[O-]", "note": "[stachydrine (proline betaine), free base, stachydrine (proline betaine)]", "values": [{"measurement": "cell numbers rating and morphology", "setting": "MM96L cells; dilution 1/50 of 1 mg/ml", "value": "+++"}, {"measurement": "cell numbers rating and morphology", "setting": "MM96L cells; dilution 1/500 of 1 mg/ml", "value": "+++"}, {"measurement": "cell numbers rating and morphology", "setting": "MM96L cells; dilution 1/5,000 of 1 mg/ml", "value": "+++"}]}, {"compound": "20-acetyl-ingenol-3-angelate", "values": [{"measurement": "final concentration active in reversion to complete dendritic morphology", "setting": "MM96L melanoma cell line", "value": 1, "unit": "ng/ml"}]}, {"compound": "CN1CC[C@@H](O)[C@@H]1C(=O)O", "note": "[t-3-hydroxy N-methyl proline, free base, t-3-hydroxy N-methyl proline]", "values": [{"measurement": "cell numbers rating and morphology", "setting": "MM96L cells; dilution 1/50 of 1 mg/ml", "value": "+++"}, {"measurement": "cell numbers rating and morphology", "setting": "MM96L cells; dilution 1/500 of 1 mg/ml", "value": "+++"}, {"measurement": "cell numbers rating and morphology", "setting": "MM96L cells; dilution 1/5,000 of 1 mg/ml", "value": "+++"}]}, {"compound": "CN1CCC[C@H]1C(=O)O", "note": "[N-methyl proline, free base, N-methyl proline]", "values": [{"measurement": "cell numbers rating and morphology", "setting": "MM96L cells; dilution 1/50 of 1 mg/ml", "value": "+++"}, {"measurement": "cell numbers rating and morphology", "setting": "MM96L cells; dilution 1/500 of 1 mg/ml", "value": "+++"}, {"measurement": "cell numbers rating and morphology", "setting": "MM96L cells; dilution 1/5,000 of 1 mg/ml", "value": "+++"}]}]}
